Results: PMC6701825, “Antiproliferative and Antimigratory Effects of a Novel YAP–TEAD Interaction Inhibitor Identified Using in Silico Molecular Docking” (Journal of Medicinal Chemistry, 2019)
“Also recorded” adds a separate entry of the source.

Key:
[1] = tested on: CCN1 promoter; assay: CCN1-luciferase reporter in HeLa cells; type: cell-based, human; conditions: 6 h, indicated concentrations
Description: Activation of TEAD transcription factors in response to YAP binding induces the expression of many genes that encode proteins known to be involved in promoting cell proliferation and migration (see Supplement Figure 14). The best characterized TEAD target genes associated with the promotion of cell proliferation and migration are CCN1 and CTGF.[39],[59],[60] […] We therefore tested whether CPD3 inhibited the promoter activity of known TEAD target genes, CCN1 and CTGF, in the HeLa transformed cell line and primary rat VSMCs (RaVSMCs). Cells were transfected with plasmids expressing bioluminescent firefly luciferase reporter genes under the control of either the CCN1 or CTGF promoter regions. […] As both CCN1 and CTGF are classical TEAD target genes, this is consistent with the inhibition of TEAD activity by CPD3.
TNT1-minP reporter containing the Troponin-T minimal promoter was generated by digesting 8xGTIIC-luciferase plasmid (Addgene #34615) with Kpn1 and BglII to remove the TEAD elements, followed by blunt end re-ligation. A 2.177 kb fragment of the human CCN1 promoter containing two proximal TEAD elements (Hg19;chr1:86044316–chr1:86046493) was described previously[39] and cloned into pGL4-luciferase (Promega). […]

[2] = target: T1, nano-luciferase enzyme (Oplophorus gracilirostris, UniProt Q9GV45, A31E/A60N/A81I/F95D/I117V/K70R/L54V/L99Q/M102K/N193R/P142E/Q151K/Q38R/Q45L/V71I/Y165I); assay: Direct inhibition of nanoluciferase enzyme in conditioned media; type: biochemical; conditions: conditioned media containing nano-luciferase, indicated concentrations
T1 construct: heterologous secretion signal (sec-Nluc) (N); expressed in transfected cells; probably the TEAD-NLUC HeLa reporter cells
T1 sequence (Q9GV45 other isoform, or with tags, fused parts or gaps with the stated changes): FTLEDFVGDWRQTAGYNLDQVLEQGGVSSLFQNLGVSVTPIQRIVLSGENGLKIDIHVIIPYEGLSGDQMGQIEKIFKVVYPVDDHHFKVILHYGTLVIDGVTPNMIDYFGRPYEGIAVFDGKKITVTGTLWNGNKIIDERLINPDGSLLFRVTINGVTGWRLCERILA
Protocol: Cell conditioned media containing nano-luciferase enzyme was incubated with the indicated
concentrations of CPD3 (A) or CPD3.1 (B) and nano-luciferase activity assayed.
(1 picture or pasted object on this page, not shown here)

[3] = target: T2, recombinant TEAD1 (residues 194-411) (Homo sapiens, UniProt P28347); assay: Saturation transfer difference (STD) NMR binding to TEAD1; conditions: 2 mM CPD3.1, approximately 20 μM TEAD1
T2 construct: TEAD1 protein (residues 194–411) was prepared by solution cleavage of the GST tag; GST (N, cleaved yes); made in house; host or cells: SoluBL21 Escherichia coli
T2 sequence (P28347 209-426): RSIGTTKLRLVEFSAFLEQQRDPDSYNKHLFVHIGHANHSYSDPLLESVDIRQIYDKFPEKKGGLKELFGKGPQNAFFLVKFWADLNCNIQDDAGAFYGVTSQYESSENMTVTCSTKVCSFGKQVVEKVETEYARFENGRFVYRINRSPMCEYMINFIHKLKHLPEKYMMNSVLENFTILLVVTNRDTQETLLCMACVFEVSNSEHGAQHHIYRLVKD
Protocol: Figure 6 Saturation transfer difference (STD) NMR analysis of compound 3.1 binding to TEAD1. Saturation-Transfer Difference (STD) NMR spectra showing the binding of CPD3.1 to recombinant TEAD1. (A) reference 1H NMR spectra of a mixture of CPD3.1 and TEAD1. (B) and (C) show the STD spectra of CPD3.1 in the absence and presence of TEAD1. The asterisk indicates buffer components or impurities in the sample. The three spectra were recorded in PBS made up in 40% H2O/60% D2O acquired at 700 MHz. The concentration of CPD3.1 was 2 mM, whereas the final concentration of TEAD1 was approximately 20 μM.
Binding of compounds to human TEAD was performed using STD NMR analysis. Briefly, TEAD1 protein (residues 194–411) was prepared by solution cleavage of the GST tag from recombinant GST–TEAD1 (194–411). GST–TEAD1 protein was eluted from glutathione beads by 40 mM reduced glutathione. GST tag was removed by incubation with PreScission protease (Sigma-Aldrich) at 4 °C for 18 h. Glutathione was removed by dialysis against 1000 volumes of 1× PBS at 4 °C for 4 h. Free GST protein was removed by incubation with glutathione resin. All NMR spectroscopy experiments were performed on a Bruker Avance III HD 700 MHz spectrometer equipped with a 1.7 mm inverse triple-resonance microcryocoil probe. NMR samples were prepared in 40 μL with PBS pH 7.4 in 60% D2O (uncorrected for D2O). […]

Compound | CCN1-luciferase reporter gene activity [1] | direct inhibitory effect on NLUC enzymatic activity [2] | binding to purified recombinant TEAD protein (STD NMR) [3]
Cc1ccc2c(c1)c1c3n2CCN(CC(O)CN2CCN(C(=O)c4ccco4)CC2)C3CCC1 (centres unmarked) [CPD3] | strong and significant dose-dependent inhibition | do not non-specifically inhibit nano-luciferase; also recorded: did not affect cell viability (Supplement Figure 6) or have any direct inhibitory effect on NLUC enzymatic activity | –
Cc1ccc2c(c1)c1c3n2CCNC3CCC1 (centres unmarked) [CPD3.1] | dose-dependent inhibition | do not non-specifically inhibit nano-luciferase; also recorded: without having any direct inhibitory effect on NLUC activity | confirmed
